Measurements as given in patent US8247211B2, “Glycopeptide antibiotics” (American Cyanamid Company, priority 2001, dated 2012).
Converted amounts (≈) assume the structure as drawn.

How the values were obtained:
Test in all cases: In vitro antibacterial evaluation: minimum inhibitory concentration (MIC), broth dilution method
Format in all cases: cell-based
Enterococcus sp. = test system: Enterococcus sp.
Experimental: (§1) The minimum inhibitory concentration (MIC), the lowest concentration of the antibiotic which inhibits growth of the test organism, is determined by the broth dilution method using Muller-Hinton II […] (Baltimore Biological Laboratories) following the recommendations of the National Committee for Clinical Laboratory Standards [Methods for dilution antimicrobial susceptibility tests for bacteria that grow aerobically, approved standard M7-A2, National Committee for Clinical Laboratory Standards, Villanova, Pa].
(§2) An inoculum level of 5×10^5 CFU/mL, and a range of antibiotic concentrations (64-0.06 μg/mL) is used. […] The test organisms include a spectrum of Gram-positive bacteria comprised of Staphylococcus sp., Streptococcus sp. and Enterococcus sp. These organisms include recent clinical isolates that are resistant to methicillin, penicillin and/or vancomycin.

Escherichia coli = test system: Escherichia coli
Experimental: as §1, §2

Staphylococcus sp. = conditions: broth dilution, 18 hours at 35° C.
Experimental: as §1, §2

Streptococcus sp. = test system: Streptococcus sp.
Experimental: as §1, §2

MIC Enterococcus faecalis (ATCC 29212) (Enterococcus sp.; strain ATCC 29212): 32 mg/L (≈ 22.6 µM)
MIC Enterococcus faecalis (GC 2242) (Enterococcus sp.; strain GC 2242): 32 mg/L (≈ 22.6 µM)
MIC Enterococcus faecium (GC 2243) (Enterococcus sp.; strain GC 2243): 64 mg/L (≈ 45.3 µM)
MIC Enterococcus faecalis (GC 2691) (Enterococcus sp.; strain GC 2691): 32 mg/L (≈ 22.6 µM)
MIC Enterococcus faecalis (GC 3059) (Enterococcus sp.; strain GC 3059): 64 mg/L (≈ 45.3 µM)
MIC Enterococcus faecalis (GC 4552) (Enterococcus sp.; strain GC 4552): 32 mg/L (≈ 22.6 µM)
MIC Enterococcus faecalis (GC 4553) (Enterococcus sp.; strain GC 4553): 32 mg/L (≈ 22.6 µM)
MIC Enterococcus faecalis (GC 4554) (Enterococcus sp.; strain GC 4554): 64 mg/L (≈ 45.3 µM)
MIC Enterococcus faecium (GC 4556) (Enterococcus sp.; strain GC 4556): 32 mg/L (≈ 22.6 µM)
MIC Enterococcus faecium (GC 4557) (Enterococcus sp.; strain GC 4557): 8 mg/L (≈ 5.66 µM)
MIC Enterococcus avium (GC 4558) (Enterococcus sp.; strain GC 4558): 32 mg/L (≈ 22.6 µM)
MIC Enterococcus faecalis (GC 6189) (Enterococcus sp.; strain GC 6189): 32 mg/L (≈ 22.6 µM)
MIC Escherichia coli (ATCC 25922) (Escherichia coli; strain ATCC 25922): >64 mg/L
MIC Escherichia coli (GC 4559) (Escherichia coli; strain GC 4559): >64 mg/L
MIC Escherichi coli (GC 4560) (Escherichia coli; strain GC 4560): 4 mg/L (≈ 2.83 µM)
MIC Coagulase Negative Staphylococcus (GC 4547) (Staphylococcus sp.; 5×10^5 CFU/mL): 8 mg/L (≈ 5.66 µM)
MIC Coagulase Negative Staphylococcus (GC 4548) (Staphylococcus sp.; 5×10^5 CFU/mL): 4 mg/L (≈ 2.83 µM)
MIC Coagulase Negative Staphylococcus (GC 4549) (Staphylococcus sp.; 5×10^5 CFU/mL): 8 mg/L (≈ 5.66 µM)
MIC Coagulase Negative Staphylococcus (GC 4551) (Staphylococcus sp.; 5×10^5 CFU/mL): 8 mg/L (≈ 5.66 µM)
MIC Coagulase Negative Staphylococcus (GC 6257) (Staphylococcus sp.; 5×10^5 CFU/mL): 4 mg/L (≈ 2.83 µM)
MIC Staphylococcus aureus (ATCC 29213) (Staphylococcus sp.; 5×10^5 CFU/mL): 16 mg/L (≈ 11.3 µM)
MIC Staphylococcus aureus (GC 1131) (Staphylococcus sp.; 5×10^5 CFU/mL): 16 mg/L (≈ 11.3 µM)
MIC Staphylococcus aureus (GC 3051) (Staphylococcus sp.; 5×10^5 CFU/mL): 16 mg/L (≈ 11.3 µM)
MIC Staphylococcus aureus (GC 3053) (Staphylococcus sp.; 5×10^5 CFU/mL): 16 mg/L (≈ 11.3 µM)
MIC Staphylococcus aureus (GC 4541) (Staphylococcus sp.; 5×10^5 CFU/mL): 8 mg/L (≈ 5.66 µM)
MIC Staphylococcus aureus (GC 4542) (Staphylococcus sp.; 5×10^5 CFU/mL): 16 mg/L (≈ 11.3 µM)
MIC Staphylococcus aureus (GC 4544) (Staphylococcus sp.; 5×10^5 CFU/mL): 16 mg/L (≈ 11.3 µM)
MIC Staphylococcus aureus (GC 4545) (Staphylococcus sp.; 5×10^5 CFU/mL): 16 mg/L (≈ 11.3 µM)
MIC Staphylococcus aureus-SMITH (GC 4543) (Staphylococcus sp.; 5×10^5 CFU/mL): 8 mg/L (≈ 5.66 µM)
MIC Staphylococcus aureus (ATCC 29213) (Staphylococcus sp.; strain ATCC 29213): 16 mg/L (≈ 11.3 µM)
MIC Staphylococcus aureus (GC 1131) (Staphylococcus sp.; strain GC 1131): 16 mg/L (≈ 11.3 µM)
MIC Staphylococcus aureus (GC 3051) (Staphylococcus sp.; strain GC 3051): 16 mg/L (≈ 11.3 µM)
MIC Staphylococcus aureus (GC 3053) (Staphylococcus sp.; strain GC 3053): 16 mg/L (≈ 11.3 µM)
MIC Staphylococcus aureus (GC 4541) (Staphylococcus sp.; strain GC 4541): 8 mg/L (≈ 5.66 µM)
MIC Staphylococcus aureus (GC 4542) (Staphylococcus sp.; strain GC 4542): 16 mg/L (≈ 11.3 µM)
MIC Staphylococcus aureus-SMITH (GC 4543) (Staphylococcus sp.; strain GC 4543): 8 mg/L (≈ 5.66 µM)
MIC Staphylococcus aureus (GC 4544) (Staphylococcus sp.; strain GC 4544): 16 mg/L (≈ 11.3 µM)
MIC Staphylococcus aureus (GC 4545) (Staphylococcus sp.; strain GC 4545): 16 mg/L (≈ 11.3 µM)
MIC Coagulase Negative Staphylococcus (GC 4547) (Staphylococcus sp.; strain GC 4547): 8 mg/L (≈ 5.66 µM)
MIC Coagulase Negative Staphylococcus (GC 4548) (Staphylococcus sp.; strain GC 4548): 4 mg/L (≈ 2.83 µM)
MIC Coagulase Negative Staphylococcus (GC 4549) (Staphylococcus sp.; strain GC 4549): 8 mg/L (≈ 5.66 µM)
MIC Coagulase Negative Staphylococcus (GC 4551) (Staphylococcus sp.; strain GC 4551): 8 mg/L (≈ 5.66 µM)
MIC Coagulase Negative Staphylococcus (GC 6257) (Staphylococcus sp.; strain GC 6257): 4 mg/L (≈ 2.83 µM)
MIC Streptococcus pneumoniae (ATCC 6301) (Streptococcus sp.; strain ATCC 6301): 2 mg/L (≈ 1.42 µM)
MIC Streptococcus pneumoniae (GC 1894) (Streptococcus sp.; strain GC 1894): 1 mg/L (≈ 0.708 µM)
MIC Streptococcus pyogenes (GC 4563) (Streptococcus sp.; strain GC 4563): 4 mg/L (≈ 2.83 µM)
MIC Streptococcus agalactiae (GC 4564) (Streptococcus sp.; strain GC 4564): 4 mg/L (≈ 2.83 µM)
MIC Streptococcus pneumoniae (GC 4565) (Streptococcus sp.; strain GC 4565): 2 mg/L (≈ 1.42 µM)
Compound: COc1cccc(C2OC3C(OC4C(CO)OC(Oc5ccc(CC6NC(=O)C(C(C)c7ccccc7)NC(=O)CNC(=O)C(CO)NC(=O)C(C(O)C7CNC(=N)N7C7OC(CO)C(O)C(O)C7O)NC(=O)C(C(O)C7CNC(=N)N7)NC6=O)cc5)C(O)C4O)OC(CO)C(O)C3O2)c1 (single isomer, unassigned) [Example 137b, Cyclo[glycyl-β-methylphenylalanyl-O-[4-O-[2,3-O-(3-methoxybenzylidene)hexopyranosyl]-hexopyranosyl]tyrosyl-3-(2-iminoimidazolidin-4-yl)seryl-3-(3-hexopyranosyl-2-iminoimidazolidin-4-yl)serylseryl]]
MIC Staphylococcus haemolyticus (GC 4546) (Staphylococcus sp.; 5×10^5 CFU/mL): 8 mg/L (≈ 5.66 µM)
MIC Staphylococcus haemolyticus (GC 4546) (Staphylococcus sp.; strain GC 4546): 8 mg/L (≈ 5.66 µM)
